Values joined by “and” are separate entries in the source; they are usually repeats but may differ in a detail not shown here. Equal values may be shown once.
Test: mn = molality of the nth substance listed, in mol/kg
Settings: 350 kPa, Liquid

O=[N+]([O-])[O-].O=[N+]([O-])[O-].[Mg+2] [magnesium nitrate] + O
mass density [kg/m3]
Settings	m1 = 0.0228	m1 = 0.0567	m1 = 0.1086	m1 = 0.2145	m1 = 0.3197	m1 = 0.4749	m1 = 0.6211	m1 = 0.811	m1 = 1	m1 = 1.014
278.15 K	1002.6	1006.37	1012.2	1023.83	1035.31	1051.77	1066.82	1086.01	1104.79	1106.04
283.15 K	1002.29	1005.98	1011.77	1023.21	1034.48	1050.8	1065.63	1084.59	1103.2	1104.4
288.15 K	1001.64	1005.28	1011.01	1022.29	1033.42	1049.55	1064.22	1082.99	1101.41	1102.61
298.15 K	999.48	1003.07	1008.68	1019.73	1030.65	1046.49	1060.93	1079.39	1097.46	1098.71
308.15 K	996.42	999.96	1005.49	1016.39	1027.14	1042.74	1056.98	1075.19	1093.03	1094.27
318.15 K	992.59	996.09	1001.54	1012.32	1022.97	1038.38	1052.47	1070.47	1088.14	1089.36
328.15 K	988.06	991.53	996.93	1007.61	1018.17	1033.44	1047.38	1065.25	1082.78	1083.97
338.15 K	982.92	986.36	991.75	1002.35	1012.86	1027.99	1041.88	1059.64	1077.04	1078.2
348.15 K	977.2	980.38	985.71	996.29	1007.11	1022.17	1035.94	1053.67	1071	1071.85
358.15 K	970.99	974.49	979.87	990.4	1000.85	1015.92	1029.76	1047.38	1064.73	1065.89
368.15 K	964.33	967.8	973.17	983.77	994.23	1009.33	1023.17	1040.85	1058.19	1059.34

O=[N+]([O-])[O-].O=[N+]([O-])[O-].[Mn+2] [manganese nitrate] + O
mass density
Settings	m1 = 0.0248	m1 = 0.0503	m1 = 0.0836	m1 = 0.5132
278.15 K	1003.65 kg/m3	1007.23 kg/m3	1011.97 kg/m3	1069.81 kg/m3 and 1069.71 kg/m3
283.15 K	1003.3 kg/m3	1006.89 kg/m3	1011.53 kg/m3	1068.8 kg/m3 and 1068.6 kg/m3
288.15 K	1002.66 kg/m3	1006.23 kg/m3	1010.8 kg/m3	1067.5 kg/m3 and 1067.36 kg/m3
298.15 K	1000.56 kg/m3	1004.07 kg/m3	1008.54 kg/m3	1064.29 kg/m3 and 1064.16 kg/m3
308.15 K	997.52 kg/m3	1000.98 kg/m3	1005.36 kg/m3	1060.4 kg/m3 and 1060.29 kg/m3
318.15 K	993.61 kg/m3	997.07 kg/m3	1001.42 kg/m3	1055.86 kg/m3 and 1055.72 kg/m3
328.15 K	988.96 kg/m3	992.44 kg/m3	996.79 kg/m3	1050.75 kg/m3 and 1050.71 kg/m3
338.15 K	983.93 kg/m3	987.31 kg/m3	991.63 kg/m3	1045.39 kg/m3 and 1045.24 kg/m3
348.15 K	978.24 kg/m3	981.59 kg/m3	985.88 kg/m3	1039.4 kg/m3 and 1039.32 kg/m3
358.15 K	972 kg/m3	975.36 kg/m3	979.63 kg/m3	1033.07 kg/m3 and 1032.97 kg/m3
368.15 K	965.29 kg/m3	968.63 kg/m3	972.92 kg/m3	1026.26 kg/m3 and 1026.2 kg/m3

O=[N+]([O-])[O-].O=[N+]([O-])[O-].[Sr+2] [strontium nitrate] + O
mass density [kg/m3]
Settings	m1 = 0.0499	m1 = 0.1006	m1 = 0.2005	m1 = 0.4995	m1 = 0.7992	m1 = 0.9995	m1 = 1.502	m1 = 2.003	m1 = 3.001
278.15 K	1009	1017.14	1034.72	1082.77	1130.52	1158.71	1231.7	1297.55	1414.38
283.15 K	1008.59	1017.1	1033.98	1082.1	1128.88	1157.52	1229.46	1295.12	1411.42
288.15 K	1007.84	1016.26	1032.93	1080.71	1126.92	1155.34	1226.86	1292.1	1407.51
298.15 K	1005.56	1013.81	1030.24	1077.19	1122.76	1150.87	1221.49	1286.04	1400.33
308.15 K	1002.4	1010.56	1026.7	1073.1	1117.95	1146.06	1215.55	1279.41	1393.17
318.15 K	998.47	1006.61	1022.45	1068.41	1112.6	1140.61	1209.17	1272.01	1385.59
328.15 K	993.97	1001.97	1017.66	1063.12	1106.82	1134.72	1201.99	1264.61	1377.87
338.15 K	988.74	996.66	1012.18	1057.26	1100.32	1128.27	1194.55	1256.5	1369.7
348.15 K	983.02	990.85	1006.4	1051.04	1094.06	1121.59	1188.05	1249.78	1361.53
358.15 K	976.66	984.57	999.95	1044.34	1087.19	1114.51	1180.88	1242.32	1353.05
368.15 K	969.9	977.81	993.09	1037.31	1079.94	1107.09	1173.15	1234.38	1344.4

Reference: the NIST ThermoML archive (doi:10.1016/j.jct.2006.09.008)
